Measurements from publication PMC11791039, “A split intein and split luciferase-coupled system for detecting protein-protein interactions” (Molecular Systems Biology, 2024).
“And” between values parts separate entries of the source, which are not always exact repeats. Equal entries are not always repeated.

Legend:
Type in all cases: cell-based
[1] = target: T1, control (Homo sapiens, UniProt P01116, G12C); test: SIMPL2 assay, control of Fig. 3B-D; conditions: replicates 1-4
T1 construct: IC-β9 (GP41-1 split intein C fragment + tNLuc β9 peptide) (N); FLAG; expressed in transfected cells
T1 sequence (P01116 1-185 isoform P01116-2 G12C limits assumed): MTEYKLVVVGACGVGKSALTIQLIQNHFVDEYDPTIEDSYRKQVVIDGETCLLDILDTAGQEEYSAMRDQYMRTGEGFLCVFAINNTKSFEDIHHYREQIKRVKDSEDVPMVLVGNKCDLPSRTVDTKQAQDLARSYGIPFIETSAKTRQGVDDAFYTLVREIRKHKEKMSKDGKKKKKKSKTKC

[2] = target: T2, EGFR(L858R)/SHC1 (Homo sapiens, UniProt P00533, L858R); test: SIMPL2 assay EGFR(L858R)/SHC1; conditions: for SIMPL2 signal, L858R (Fig. 3D): replicates 1-4
T2 construct: β10-IN (tNLuc β10 peptide + GP41-1 split intein N fragment) (C); V5; expressed in transfected cells

[3] = target: T3, MDM2/MDM4 interaction (Homo sapiens, UniProt O15151+Q00987); test: SIMPL2 assay MDM2/MDM4; conditions: for SIMPL2 signal, MDM2/MDM4 (Fig. 4A): replicates 1-4
T3 construct: β10-IN (tNLuc β10 peptide + GP41-1 split intein N fragment) (C); V5; IC-β9 (GP41-1 split intein C fragment + tNLuc β9 peptide) (N); FLAG; expressed in transfected cells
T3 sequence (Q00987 whole entry, the tested form may be a part): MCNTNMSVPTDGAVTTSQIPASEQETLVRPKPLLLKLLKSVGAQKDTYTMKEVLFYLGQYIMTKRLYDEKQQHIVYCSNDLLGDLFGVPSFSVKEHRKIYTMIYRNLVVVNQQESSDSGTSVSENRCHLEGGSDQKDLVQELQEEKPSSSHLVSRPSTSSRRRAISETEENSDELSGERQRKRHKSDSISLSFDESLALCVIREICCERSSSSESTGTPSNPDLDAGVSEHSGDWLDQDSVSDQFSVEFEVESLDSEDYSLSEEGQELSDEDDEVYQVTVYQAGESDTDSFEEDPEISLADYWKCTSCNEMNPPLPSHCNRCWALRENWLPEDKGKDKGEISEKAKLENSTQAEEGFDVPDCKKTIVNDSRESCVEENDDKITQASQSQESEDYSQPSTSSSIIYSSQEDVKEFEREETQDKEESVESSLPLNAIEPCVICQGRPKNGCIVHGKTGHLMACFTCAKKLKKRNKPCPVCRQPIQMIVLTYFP
T3 sequence (O15151 whole entry, the tested form may be a part): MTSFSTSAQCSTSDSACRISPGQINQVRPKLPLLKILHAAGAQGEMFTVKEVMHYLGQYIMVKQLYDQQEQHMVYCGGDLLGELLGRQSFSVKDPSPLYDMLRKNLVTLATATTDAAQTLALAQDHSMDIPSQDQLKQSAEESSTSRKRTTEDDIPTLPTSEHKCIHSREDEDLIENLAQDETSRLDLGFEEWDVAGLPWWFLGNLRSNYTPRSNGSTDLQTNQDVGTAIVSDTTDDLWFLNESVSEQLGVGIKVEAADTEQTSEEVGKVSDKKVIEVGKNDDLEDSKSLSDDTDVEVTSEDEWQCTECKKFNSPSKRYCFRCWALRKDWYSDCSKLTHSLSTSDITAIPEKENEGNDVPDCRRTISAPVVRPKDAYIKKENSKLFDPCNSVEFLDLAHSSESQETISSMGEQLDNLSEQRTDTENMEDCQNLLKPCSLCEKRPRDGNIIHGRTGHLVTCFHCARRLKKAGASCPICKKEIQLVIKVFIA
Experimental: We next tested the system with molecular glues, which are small molecule compounds that induce target protein interaction. […] To clarify, the two protein molecules are anchored together through a pair of dimerized RO-5963 molecules. […] Therefore, its binding kinetics display a monophasic change.
Figure 4 Evaluation of SIMPL2 as a drug discovery tool using molecular glue and PROTACs. […] Samples were measured and normalized as described in Materials and Methods. […] The cells were then subjected to SIMPL2 luciferase measurement, and the raw values are plotted.
Stable cells of target protein pair were created using Cas9 CRISPR. To characterize PPI modulators, the cells were seeded in 384 well plate (10,000 cells/well) and incubated for 5 h. […] Average signal of wells without either deoxycycline or compound treatment was used as blank or ‘floor’ signal (SF). The average signal of wells with deoxycycline treatment but without compound treatment was used as maximal interaction or ‘ceiling’ (SC). SIMPL2 reading of each sample (Ssample) was normalized according to the formula S^*sample = (Ssample– SF)/(SC– SF) x 100%, in which S^*sample stands for normalized signal. The normalized data of inhibitor experiments were fitted into a four-parameter inhibitor-response model.

[4] = target: T4, EGFR(WT)/SHC1 (Homo sapiens, UniProt P00533); test: SIMPL2 assay EGFR(WT)/SHC1; conditions: for SIMPL2 signal, WT (Fig. 3D): replicates 1-4
T4 construct: β10-IN (tNLuc β10 peptide + GP41-1 split intein N fragment) (C); V5; expressed in transfected cells

SIMPL2 signal, control (Fig. 3D) ([1]; AZD6244 6.4e-6 uM): 109.596 and 130.088 | SIMPL2 signal, control (Fig. 3D) ([1]; AZD6244 0.004 uM): 92.396 and 92.6013 and 98.3715 | SIMPL2 signal, control (Fig. 3D) ([1]; AZD6244 0.02 uM): 95.5614 | SIMPL2 signal, control (Fig. 3D) ([1]; AZD6244 0.1 uM): 91.3936 and 91.141 | SIMPL2 signal, control (Fig. 3D) ([1]; AZD6244 0.5 uM): 89.4044 | SIMPL2 signal, L858R (Fig. 3D) ([2]; AZD6244 0.004 uM): 85.9825 and 79.039 and 94.0877 and 83.58 | effect on EGFR(L858R)/SHC1 interaction signal ([2]; doxycycline + compound 16 h): no effect | induction of MDM2/MDM4 interaction ([3]; 16 h with doxycycline): not observed | inhibition of EGFR(WT)/SHC1 interaction signal ([4]; doxycycline + compound 16 h): no effect
Structure (SMILES): Cn1cnc2c(F)c(Nc3ccc(Br)cc3Cl)c(C(=O)NOCCO)cc21 [selumetinib, Selumetinib]
SIMPL2 signal, control (Fig. 3D) ([1]; AZD6244 3.2e-5 uM): 98.632 and 104.891 and 97.5584 and 100.637 | SIMPL2 signal, control (Fig. 3D) ([1]; AZD6244 0.00016 uM): 97.4795 and 101.781 and 98.0162 and 96.0508 | SIMPL2 signal, control (Fig. 3D) ([1]; AZD6244 0.0008 uM): 100.171 and 103.684 and 97.3453 and 101.418 | SIMPL2 signal, L858R (Fig. 3D) ([2]; AZD6244 6.4e-6 uM): 107.975 and 92.9525 and 107.024 and 103.355 | SIMPL2 signal, L858R (Fig. 3D) ([2]; AZD6244 3.2e-5 uM): 88.2795 and 92.9261 and 92.1077 and 96.4375 | SIMPL2 signal, L858R (Fig. 3D) ([2]; AZD6244 0.00016 uM): 108.688 and 85.5073 and 82.6824 and 92.9525 | SIMPL2 signal, L858R (Fig. 3D) ([2]; AZD6244 0.0008 uM): 91.1572 and 94.7742 and 86.1145 and 84.24 | SIMPL2 signal, L858R (Fig. 3D) ([2]; AZD6244 0.02 uM): 89.8635 and 58.7628 and 116.819 and 92.2661 | SIMPL2 signal, L858R (Fig. 3D) ([2]; AZD6244 0.1 uM): 96.4375 and 99.3416 and 96.3319 and 106.18 | SIMPL2 signal, L858R (Fig. 3D) ([2]; AZD6244 0.5 uM): 85.5073 and 101.612 and 96.3583 and 99.632 | SIMPL2 signal, MDM2/MDM4 (Fig. 4A) ([3]; AZD6244 0.013717 uM): 105.342 and 94.3499 and 91.2095 and 111.623 | SIMPL2 signal, MDM2/MDM4 (Fig. 4A) ([3]; AZD6244 0.041152 uM): 84.4799 and 83.2835 and 83.9564 and 94.7238 | SIMPL2 signal, MDM2/MDM4 (Fig. 4A) ([3]; AZD6244 0.37037 uM): 85.1528 and 73.4882 and 95.2472 and 81.3394 | SIMPL2 signal, MDM2/MDM4 (Fig. 4A) ([3]; AZD6244 1.11111 uM): 73.7125 and 92.2563 and 82.1619 and 85.5267 | SIMPL2 signal, MDM2/MDM4 (Fig. 4A) ([3]; AZD6244 3.33333 uM): 70.0486 and 88.8915 and 67.3568 and 90.3869 | SIMPL2 signal, MDM2/MDM4 (Fig. 4A) ([3]; AZD6244 10 uM): 78.4232 and 90.5365 and 82.0123 and 90.6113 | SIMPL2 signal, WT (Fig. 3D) ([4]; AZD6244 6.4e-6 uM): 117.981 and 128.314 and 91.3721 and 97.094 | SIMPL2 signal, WT (Fig. 3D) ([4]; AZD6244 3.2e-5 uM): 96.8718 and 91.2055 and 86.3725 and 98.1494 | SIMPL2 signal, WT (Fig. 3D) ([4]; AZD6244 0.00016 uM): 96.2607 and 97.2051 and 90.2055 and 118.204 | SIMPL2 signal, WT (Fig. 3D) ([4]; AZD6244 0.0008 uM): 91.2055 and 95.2608 and 88.9279 and 100.427 | SIMPL2 signal, WT (Fig. 3D) ([4]; AZD6244 0.004 uM): 91.5388 and 82.4283 and 71.7068 and 83.0949 | SIMPL2 signal, WT (Fig. 3D) ([4]; AZD6244 0.02 uM): 79.8174 and 81.2062 and 88.8723 and 103.205 | SIMPL2 signal, WT (Fig. 3D) ([4]; AZD6244 0.1 uM): 113.815 and 112.593 and 100.427 and 98.6494 | SIMPL2 signal, WT (Fig. 3D) ([4]; AZD6244 0.5 uM): 103.76 and 101.094 and 97.3717 and 91.7054
